The target of one series is T1, human M1R (Homo sapiens, UniProt P11229).
T1 construct: host or cells: HEK293 (CRL-1573, ATCC), transient
T1 sequence (P11229 1-460): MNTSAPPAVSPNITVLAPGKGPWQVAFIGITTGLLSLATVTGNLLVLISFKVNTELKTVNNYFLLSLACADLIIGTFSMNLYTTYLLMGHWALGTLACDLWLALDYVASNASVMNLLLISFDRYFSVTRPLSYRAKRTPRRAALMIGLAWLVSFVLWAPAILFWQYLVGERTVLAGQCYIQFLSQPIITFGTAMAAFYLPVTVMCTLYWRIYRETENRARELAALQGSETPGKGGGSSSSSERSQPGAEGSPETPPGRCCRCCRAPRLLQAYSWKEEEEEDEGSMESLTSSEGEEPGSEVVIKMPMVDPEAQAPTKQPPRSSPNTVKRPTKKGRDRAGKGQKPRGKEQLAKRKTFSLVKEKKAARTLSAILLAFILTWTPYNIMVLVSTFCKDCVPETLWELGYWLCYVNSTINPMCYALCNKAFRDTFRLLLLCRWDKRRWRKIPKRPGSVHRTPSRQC
Kind of series: biochemical. In kind it is binding. Particulars: full dose-response [3H]Scopolamine competition binding; α-PPP and α-PBP interpolated; read-out: pKi at M1R (converted). Here is the method:
(§1) Radioligand Competition Binding: Radioligand competition binding assays were conducted using membranes collected from transiently transfected HEK293 cells (P<20 from a procured stock, CRL-1573, ATCC, Manassas, Va., USA) as previously described (Chen, Y., et al. Drug Test Anal 11, 990-998). Briefly, cells ˜90% confluent in 10 cm plates were transfected with 5 μg human M1R, M2R, M3R, M4R or […] cDNA (cDNA resource center, Bloomsburg, Pa., USA) using a lipid-based method (LipoD293 reagent, SignaGen Laboratories, Rockville, Md., USA). Membranes were collected by centrifugation about 48 hours later and stored at −80° C. until used. […] After a 90-minute incubation at room temperature on a shaker, contents from the plates were rapidly filtered through GF/B fiberglass filter mats, pre-soaked with ice cold 50 mM Tris buffer (pH 7.4), using a Microbeta Filtermat-96 cell harvester (Perkin Elmer, Waltham, Mass., USA). Approximately 200 mL of ice cold, 50 mM Tris buffer was then vacuumed through filter mats to wash away unbound radioligand. Filter mats were dried on a hot plate and soaked in Betaplate (Perkin Elmer, Waltham, Mass., USA) scintillation fluid in plastic bags. Bags were sealed and placed in cassettes. Radioactivity was measured in a Microbeta2 Microplate Counter (Perkin Elmer, Waltham, Mass., USA), and counts per minute corresponding to each well on the plates were recorded. For full dose-response competition binding assays, increasing half-log unit concentrations of five unsubstituted PSCs were tested at M2Rs and M1Rs, with the same procedures described above.
(§2) Curve Fitting and Statistical Analyses: All data were analyzed by GraphPad 8.3.0 (San Diego, Calif., USA). Ki values were determined from data fit to both one- and two-site models. […] EC50 and IC50 values from functional assays were determined from data fit to the log(agonist) vs. response (three parameters) or log(inhibitor) vs. response (three parameters) model, respectively. Kb values were calculated from IC50 values using the Cheng-Prusoff equation with modification (see, e.g., Leff, P., and Dougall, I. G. (1993) Trends Pharmacol Sci 14, 110-112): Kb=IC50/((2+([A]/[A50])nH)1/nH−1)

The next series concerns the target T2, human M3R (Homo sapiens, UniProt P20309).
T2 construct: host or cells: HEK293 (CRL-1573, ATCC), transient
Kind of series: biochemical. The class given is binding. Particulars: estimate from 1 and 10 μM concentrations (N = 2); N.C. = <5% displacement of radioligand at 10 μM; read-out: estimated pKi at M3R (converted). Here is the method:
as §1, §2

Another series has as its target T3, human M2R (Homo sapiens, UniProt P08172).
T3 construct: host or cells: HEK293 (CRL-1573, ATCC), transient
T3 sequence (P08172 1-466): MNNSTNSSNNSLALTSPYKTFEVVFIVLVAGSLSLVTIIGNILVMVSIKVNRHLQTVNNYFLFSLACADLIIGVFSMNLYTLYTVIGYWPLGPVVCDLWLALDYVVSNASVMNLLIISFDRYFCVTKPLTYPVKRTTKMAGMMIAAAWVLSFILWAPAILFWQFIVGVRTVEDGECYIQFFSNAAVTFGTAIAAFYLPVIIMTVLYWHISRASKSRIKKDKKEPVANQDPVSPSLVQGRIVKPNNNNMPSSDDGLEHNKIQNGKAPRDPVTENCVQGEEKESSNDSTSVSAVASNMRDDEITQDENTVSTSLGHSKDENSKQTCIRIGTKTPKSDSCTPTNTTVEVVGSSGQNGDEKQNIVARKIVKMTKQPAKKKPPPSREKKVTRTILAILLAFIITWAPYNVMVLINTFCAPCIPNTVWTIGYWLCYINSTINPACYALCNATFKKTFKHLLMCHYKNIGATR
Kind of series: [3H]Scopolamine radioligand competition binding at M2R. Here is the method:
as §1, §2
On the technique in general: Displacement assays read how much labelled ligand stays bound in the presence of the test substance.

The target of another series is T4, human M4R (Homo sapiens, UniProt P08173).
T4 construct: host or cells: HEK293 (CRL-1573, ATCC), transient
T4 sequence (P08173 1-479): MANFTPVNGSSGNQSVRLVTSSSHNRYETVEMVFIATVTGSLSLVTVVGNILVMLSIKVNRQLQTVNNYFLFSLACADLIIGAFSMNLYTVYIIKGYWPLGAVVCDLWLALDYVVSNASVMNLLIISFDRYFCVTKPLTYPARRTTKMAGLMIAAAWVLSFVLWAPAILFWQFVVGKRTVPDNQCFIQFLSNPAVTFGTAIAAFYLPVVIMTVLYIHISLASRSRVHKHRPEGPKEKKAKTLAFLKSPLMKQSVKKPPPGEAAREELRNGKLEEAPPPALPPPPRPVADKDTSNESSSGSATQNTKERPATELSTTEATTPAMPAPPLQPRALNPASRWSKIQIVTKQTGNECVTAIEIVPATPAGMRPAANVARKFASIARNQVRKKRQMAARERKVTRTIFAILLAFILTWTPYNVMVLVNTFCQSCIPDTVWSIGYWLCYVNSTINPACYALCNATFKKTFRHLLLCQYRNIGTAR
Kind of series: [3H]Scopolamine radioligand competition binding at M4R. Here is the method:
as §1, §2

Another series concerns the target T5, human M5R (Homo sapiens, UniProt P08912).
T5 construct: host or cells: HEK293 (CRL-1573, ATCC), transient
T5 sequence (P08912 1-532): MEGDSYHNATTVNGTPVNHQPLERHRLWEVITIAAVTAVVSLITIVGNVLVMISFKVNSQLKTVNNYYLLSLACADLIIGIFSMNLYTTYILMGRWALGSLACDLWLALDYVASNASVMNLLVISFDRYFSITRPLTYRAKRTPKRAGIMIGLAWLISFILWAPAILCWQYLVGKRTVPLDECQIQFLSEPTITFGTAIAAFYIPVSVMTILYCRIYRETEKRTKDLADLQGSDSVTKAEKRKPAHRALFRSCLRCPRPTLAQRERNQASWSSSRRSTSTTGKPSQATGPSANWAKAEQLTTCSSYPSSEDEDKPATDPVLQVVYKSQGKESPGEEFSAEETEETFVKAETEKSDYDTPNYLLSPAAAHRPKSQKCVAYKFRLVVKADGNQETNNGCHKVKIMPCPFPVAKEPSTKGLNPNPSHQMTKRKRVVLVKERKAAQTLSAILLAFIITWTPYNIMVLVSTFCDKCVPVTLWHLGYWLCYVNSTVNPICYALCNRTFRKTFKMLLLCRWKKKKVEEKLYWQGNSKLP
Put plainly: [3H]Scopolamine radioligand competition binding at M5R. How it is done: as §1, §2

For series [1] the following is noted: 42 cases of intoxication, Beck et al. 2016; cited from earlier work.

The values that follow come from patent publication US11912705B2, “Cathinone derivatives, pharmaceutical formulations, and methods” (The Corporation of Mercer University, priority 2020, dated 2024).

T2 sequence (P20309 whole entry): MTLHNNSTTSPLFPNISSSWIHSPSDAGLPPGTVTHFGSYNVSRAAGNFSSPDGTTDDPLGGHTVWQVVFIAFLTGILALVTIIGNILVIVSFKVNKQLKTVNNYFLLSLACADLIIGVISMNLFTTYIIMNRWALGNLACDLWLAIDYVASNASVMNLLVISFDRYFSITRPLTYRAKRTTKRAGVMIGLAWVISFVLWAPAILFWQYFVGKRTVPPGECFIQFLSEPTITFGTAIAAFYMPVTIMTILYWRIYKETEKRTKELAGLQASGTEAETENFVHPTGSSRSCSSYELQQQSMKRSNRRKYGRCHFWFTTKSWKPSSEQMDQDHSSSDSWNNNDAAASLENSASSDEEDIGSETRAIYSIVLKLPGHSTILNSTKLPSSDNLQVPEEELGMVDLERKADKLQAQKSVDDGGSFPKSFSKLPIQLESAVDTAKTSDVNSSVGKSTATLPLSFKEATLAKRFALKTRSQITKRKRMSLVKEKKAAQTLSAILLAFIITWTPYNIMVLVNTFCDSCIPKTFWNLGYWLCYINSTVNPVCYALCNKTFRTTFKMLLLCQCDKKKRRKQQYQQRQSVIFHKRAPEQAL

With `CCCC(C(=O)c1ccccc1)N1CCCC1` (stereo not drawn) [α-PVP, α-Pyrrolidinopentiophenone], the Ki on human M1R was 5.13 µM; at human M3R it was 6.03 µM; at human M2R (Ki at M2Rs, full dose-response [3H]Scopolamine competition binding), 0.824 µM; on human M4R, 8.13 µM; on human M5R it was 4.17 µM. For the same compound, the “fold increase in M2R affinity compared to α-PBP” value on human M2R stood at 49 fold. In addition, the “fold increase in M2R affinity compared to α-PPP” value at human M2R stood at 89 fold. In addition, the “patients presenting with tachycardia” value in series [1] is 80%.
